What is called IC50 is the point on the concentration scale where inhibition reaches its midpoint. As a reminder, the % Inhibition is the percentage by which the read-out fell short of the control. A low value points to little suppression. In general, melting point refers to the temperature of the solid-liquid transition.

In one data set the target is T1, integrin linked kinase (ILK1), full-length recombinant GST-ILK (Homo sapiens, UniProt Q13418).
T1 construct: The target integrin linked kinase is a full-length recombinant protein expressed in sF9 insect cells by baculovirus infection; made in house; host or cells: Baculovirus; virus amplified in Sf9 cells, protein expressed in Hi5 insect cells
T1 sequence (Q13418 1-452): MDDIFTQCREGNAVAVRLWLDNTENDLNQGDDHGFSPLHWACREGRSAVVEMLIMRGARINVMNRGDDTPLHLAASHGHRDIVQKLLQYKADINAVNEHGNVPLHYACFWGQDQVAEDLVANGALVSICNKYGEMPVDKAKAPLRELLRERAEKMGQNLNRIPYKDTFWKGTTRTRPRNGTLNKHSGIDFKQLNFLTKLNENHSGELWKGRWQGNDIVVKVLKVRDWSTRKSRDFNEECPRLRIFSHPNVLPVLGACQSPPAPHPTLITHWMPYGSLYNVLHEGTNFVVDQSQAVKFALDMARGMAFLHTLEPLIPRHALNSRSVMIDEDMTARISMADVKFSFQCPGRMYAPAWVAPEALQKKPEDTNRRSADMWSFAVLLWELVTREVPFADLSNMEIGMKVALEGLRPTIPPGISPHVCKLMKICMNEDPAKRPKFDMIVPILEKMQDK
Put plainly: Integrin linked kinase inhibition assay (radioactive phosphate incorporation, scintillation counting). In kind it is biochemical.
Conditions: not given
The method, then: Compounds are screened using a series of disease related kinase targets, such as integrin linked kinase-1. Synthesized libraries of compounds are tested against each of the targets to find compounds that inhibit one of the targets preferentially.
Inhibition of the targets is measured by scintillation counting; the incorporation of radioactive phosphate onto a specific substrate which is immobilized onto a filter paper at the end of the assay. To provide meaningful measurements of inhibition, the assays are performed both in the absence and presence of specific and known inhibitors, and the amount of incorporated radioactivity is compared to provide a baseline measurement.
Inhibition Assay: Compounds listed in Table 1 were lyophilized and stored at −20° C. Stock solutions were made by weighing out the compounds and dissolving them in dimethyl sulfoxide (DMSO) to a standard concentration, usually 20 mM, and stored at −20° C. […] Diluted 100% DMSO was used as a negative control.
A volume of 5 μl of each compound dilution were robotically pipetted to Costar serocluster plates maintaining the same plate format. All assays consisted of the following volumes: • 5 μl diluted compound • 10 μl enzyme preparation • 5 μl substrate • 5 μl assay ATP and were then incubated 15 min at room temperature.
From each reaction, 10 μl of reaction mix was spotted onto Millipore Multiscreen-PH opaque plates and washed 2×10 min in 1% phosphoric acid. The plates were dried for at 40° C. for 30 min, then the substrate phosphate complexes were quantitated by scintillation counting. These Millipore plates are in a 96 well format with immobilized P81 phosphocellulose membranes. Both the phosphorylated and non-phosphorylated form of the substrate bind to the membrane while ATP (unincorporated phosphate) is removed in the subsequent wash steps.
Integrin Linked Kinase: The target integrin linked kinase is a full-length recombinant protein expressed in sF9 insect cells by baculovirus infection. The ILK1 substrate is […]-amide.
Recombinant ILK protein was expressed using cultured insect cells and a baculovirus expression system.
A large scale plasmid preparation of the resulting transfer construct was made using a Qiagen Plasmid Midi Kit. This ILK transfer construct was then co-transfected with BaculoGold DNA (Pharmingen) into Sf9 insect cells (Invitrogen) and a high titre preparation of GST-ILK recombinant baculovirus was produced by amplification in Sf9 cells. Liter scale expression of GST-ILK recombinant protein was done in 1000 ml spinner flasks (Bellco) by infection of Hi5 insect cells (Invitrogen) grown in Ex-Cell 400 Serum Free Media (JRH Biosciences) at a multiplicity of infection of approximately 5. The cells were harvested three days after infection and lysed in Hypotonic Lysis Buffer (HLB; 10 mM imidazole, 5 mM EDTA, 0.1% β-mercaptoethanol, 10 ug/ml PMSF, 1 mM benzamidine) by sonication. The lysate was centrifuged at 10,000×g for 20 min and the supernatant was discarded. The pellet was washed twice in HLB and then washed twice in High Salt Buffer (HSB; 500 mM NaCl, 10 mM imidazole, 5 mM EDTA, 0.1% β-mercaptoethanol, 10 ug/ml PMSF, 1 mM benzamidine). The pellet was then resuspended in DNAse-ATP Buffer (DAB; 10 mM MgCl2, 1 mM MnCl2, β-methyl aspartic acid, 2 mM NaF, 0.55 mg/ml ATP, 1 ug/ml DNAse I, 1% NP-40, 10 mM imidazole, 5 mM EDTA, 0.1% β-mercaptoethanol, 10 ug/ml PMSF, 1 mM benzamidine) and stirred for 30 min at room temperature, and then centrifuged at 10,000×g for 20 min. The pellet was resuspended in High Salt Detergent Buffer (HDB; 1% NP-40, 1% Triton X-100, 500 mM NaCl, 10 mM imidazole, 5 mM EDTA, 0.1% β-mercaptoethanol, 10 ug/ml PMSF, 1 mM benzamidine), stirred for 30 min at room temperature, and then centrufuged at 10,000×g for 20 min. The pellet was then washed once in each of HDB, HSB, and HLB, centrifuging at 10,000×g each time. Finally, the pellet was resuspended in HLB.
As to `CC(=O)NC(=O)c1nnsc1Nc1ccccc1` [KP 27421, 5-Phenylamino-[1,2,3]thiadiazole-4-carboxylicacid acetylamide], the IC50 was more than 20 µM.

For `CCCCCCNc1snnc1C(N)=O` [KP 27305, 5-Hexylamino-[1,2,3]thiadiazole-4-carboxylicacid amide], the IC50 is more than 20 µM.

Turning to `NC(=O)c1nnsc1Nc1ccc(Br)cc1` [KP 27296, 5-(4-Bromophenylamino)-[1,2,3]thiadiazole-4-carboxylicacid amide], the half-maximal inhibitory concentration (IC50) is more than 20 µM.

Consider `COc1ccc(Nc2snnc2C(N)=O)cc1` [KP 27297, 5-(4-Methoxyphenylamino)-[1,2,3]thiadiazole-4-carboxylicacid amide], for which the concentration for half-maximal inhibition (IC50) was more than 20 µM. On the same count and under the same terms, the same measure for `O=C(O)c1nnsc1Nc1ccccc1` [KP-27271, 5-Phenylamino-[1,2,3]thiadiazole-4-carboxylicacid]: more than 20 µM; for `NC(=O)c1nnsc1NC(=O)c1ccccc1` [KP 27303, 5-Benzoylamino-[1,2,3]thiadiazole-4-carboxylicacid amide]: more than 20 µM; for `NC(=O)c1nnsc1NC1CCCCC1` [KP 27300, 5-Cyclohexylamino-[1,2,3]thiadiazole-4-carboxylicacid amide]: more than 20 µM.

Regarding `CCOC(=O)Nc1snnc1C(N)=O` [KP 27298, (4-Carbamoyl-[1,2,3]thiadiazol-5-yl)-carbamicacid ethyl ester], the 50% inhibitory concentration (IC50) is more than 20 µM. Regarding `NC(=O)c1nnsc1NCc1ccccc1` [KP 27302, 5-Benzylamino-[1,2,3]thiadiazole-4-carboxylicacid amide], the 50% inhibitory concentration (IC50) was more than 20 µM. On the same count and under the same terms, the value for `CN(c1ccccc1)c1snnc1C(N)=O` [KP 27420, 5-(Methylphenylamino)-[1,2,3]thiadiazole-4-carboxylicacid amide] was more than 20 µM.

Turning to `NCc1nnsc1Nc1ccccc1` [KP 27422, (4-Aminomethyl-[1,2,3]thiadiazol-5-yl)phenylamine], the concentration for half-maximal inhibition (IC50) is more than 20 µM. Same read-out and setting: the value for `NC(=O)c1nnsc1NC12CC3CC(CC(C3)C1)C2` [KP 27299, 5-(Adamantan-1-ylamino)-[1,2,3]thiadiazole-4-carboxylicacid amide] was more than 20 µM; that for `CCNc1snnc1C(N)=O` [KP 27304, 5-Ethylamino-[1,2,3]thiadiazole-4-carboxylicacid amide] was more than 20 µM.

The subject of a further data set is chick chorioallantoic membrane. The data set can be described thus: Chick chorioallantoic membrane (CAM) developmental angiogenesis assay. In kind it is in vivo, chicken. Conditions: 50 μm. The method, then: e. Chick chorioallantoic membrane assay (CAM assay): was performed on fertilized chicken eggs and used as a test for angiogenesis inhibition.
Approximately 4 dozen fertilized eggs were sprayed with 70% ETOH and placed in a 180 egg incubator (GQF Sportsman incubator). The eggs were incubated “rounded-side down” and were fully rotated along the vertical axis every 30 minutes at 37° C. under 90% relative humidity.
After 4 days, the eggs were placed upside down (round side up) for 5-10 minutes, before a round hole approximately 3 centimeters in diameter was created above the pointed end or “air hole” of the egg using sterile blunt-ended forceps (“deshelling”). The inner membrane was also removed, and the embryo was visible through this opening. A small portion of the outer membrane was then carefully removed using fine-tipped forceps in order to expose the CAM. Sterile Parafilm was placed over the de-shelled opening to create an airtight seal. The eggs were returned to the incubator (with no rotation) for 2 days.
Viable eggs were then treated with control and inhibitor compounds. Gelfoam™ gelatin sterile sponge (Upjohn) or 1-2 mm discs of methylcellulose saturated with physiological saline, buffer or an appropriate dilution of the compounds under investigation. The Gelfoam™ fragments of methylcellulose discs were added directly to the surface of the developing CAM. Care was taken not to add the treatment directly over a large vessel. The shells were marked in 3 places to aid in stereotactic localization of the treatment sponge or disc. An average of 6 eggs were included for each experimental condition. The treated eggs were returned to the incubator for 2 days.
The eggs were then assessed for blood vessel growth inhibition. Photomicrographs for records and visual examination were made using a Nikon dissecting microscope with an attached Nikon 35-mm camera body.
In the case of `NC(=O)c1nnsc1Nc1cccc2ccccc12` [KP 27301, 5-(Naphthalen-1-ylamino)-[1,2,3]thiadiazole-4-carboxylicacid amide], the “% Inhibition” value is listed as 100%. Still for that read-out and setting: the value for `CCNc1snnc1C(N)=O` [KP 27304, 5-Ethylamino-[1,2,3]thiadiazole-4-carboxylicacid amide] was 60%.

Test system in a further data set: not given
Experiment: not given
Conditions: not given
For `CN(c1ccccc1)c1snnc1C(N)=O` [KP 27420, 5-(Methylphenylamino)-[1,2,3]thiadiazole-4-carboxylicacid amide], the melting point lay within 194 to 196 °C.

The values are drawn from patent US7288556B2, “Antiproliferative 1,2,3-thiadiazole compounds” (QLT Inc., priority 2000, dated 2007).
